Patent US8889631B2, “Disruptors of early/recycling endosomes” (The University of Kansas, priority 2008, dated 2014)
Entries after “also recorded” stand apart in the source; their conditions may differ. Square brackets hold non-standard residues; d marks the D form. Peptide text beside a SMILES is read from it. * marks the point of attachment. Pentanoyl(5-NH-cholesteryl) = CC(C)CCC[C@@H](C)[C@H]1CC[C@H]2[C@@H]3CC=C4C[C@@H](NCCCCC(=O)*)CC[C@]4(C)[C@H]3CC[C@]12C; X1 = O=C(O)c1c(Cl)cc(C(=O)*)c(Cl)c1-c1c2cc(Cl)c(=O)c(Cl)c-2oc2c(Cl)c(O)c(Cl)cc12; Ahx = NCCCCCC(=O)O

Tests used:
Jurkat lymphocytes [1] = assay: Toxicity of colchicine-cholesterylamine Compound 30 with or without Compound 1, DIC micrographs; type: cell-based, human; conditions: 2 μM; 48 h
Procedure: FIGS. 11B-11E show DIC micrographs of Jurkat lymphocytes treated for 48 h with DMSO (FIG. 11B), Compound 1 (FIG. 11C), Compound 30 (FIG. 11D, and Compounds 1 and 30 (FIG. 11E).
The delivery system was studied with the anticancer agent colchicine being linked to the N-alkyl-3β-cholesterylamine via a disulfide, which compound is Compound 30 as shown in FIG. 11A. The delivery system utilized Compound 1 to release the anticancer agent colchicine from Compound 30. Colchicine was linked to an N-alkyl-3β-cholesterylamine via a disulfide linker to present a compound that is non-toxic to Jurkat lymphocytes at 200 nM. The cholesterylamine-PC4 peptide (Compound 1) is similarly non-toxic at 2 μM. However, the combination of these two compounds (Compound 1+Compound 30) is lethal to lymphocytes because Compound 1 enables release of the toxic colchicine derivative (FIGS. 11B-11E). […] It is thought that tumor-specific proteases capable of cleaving a peptide bond linking N-alkyl-3β-cholesterylamines to doxorubicin or other cancer agent will similarly enable the specific delivery of drugs to cognate cancer cells. Also, a cell type specific protease can be used for controlling delivery of the agent into the cytosol of those cell types.

CHO cells [2] = assay: Cytotoxicity assay (CellTiter-Glo), CHO cells; type: cell-based, Chinese hamster; conditions: 8 μM, 48 h at 37° C.
Procedure: Trypsinized CHO cells (2×10^3) in media (100 μL) were loaded on a 96-well plate. After incubation for 36 h, the media was replaced with fresh media (100 μL) containing increasing concentrations of Compound 1 in DMSO (final [DMSO]=1%). After 48 h of incubation, the cells in each well were washed with PBS (2×100 μL) and detached by treatment with a solution of trypsin (50 μL, 5 min). The cell suspension (10 μL) was transferred to an opaque 96-well plate containing PBS (170 μL per well) and treated with CellTiter-Glo reagent (20 μL, Promega) according to the Promega protocol provided with the reagent. After incubation at ambient temperature (22° C.) for 10 min, the luminescence of the samples was measured with a Packard Fusion microplate reader.

Jurkat lymphocytes [3] = assay: Cytotoxicity assay (CellTiter-Glo), Jurkat cells; type: cell-based, human; conditions: 2 μM, 48 h at 37° C.
Procedure: Jurkat lymphocytes (7×10^4) in media (100 μL) were loaded on a 96-well plate. To these cells were added increasing concentrations of Compound 1 in DMSO (final [DMSO]=1%). After incubation for 48 h, cells from each well (10 μL) were transferred to an opaque 96-well plate containing PBS (170 μL per well) and treated with CellTiter-Glo reagent (20 μL, Promega) according to the Promega protocol provided with the reagent. After incubation at ambient temperature (22° C.) for 10 min, the luminescence of the samples was measured with a Packard Fusion microplate reader.

Jurkat lymphocytes [4] = assay: Inhibiting endosome acidification, Jurkat cells (bafilomycin A1); type: cell-based, human; conditions: bafilomycin A1 1 μM, Compound 3 (2.5 μM) and Compound 2 (2 μM), 12 h, 37° C.
Procedure: Jurkat lymphocytes (5×10^5) in media (500 μL) were pretreated with bafilomycin A1 (final concentration=1 μM) in DMSO (final [DMSO]=2%) for 1 h. […] After incubation at 37° C. for 12 h, the cells were washed with fresh media (500 μL) and resuspended in fresh media (125 μL) for analysis by confocal microscopy.

CHO cells [5] = assay: Inhibiting endosome acidification, CHO cells (chloroquine); type: cell-based, Chinese hamster; conditions: chloroquine 5 μM, Compound 3 (5 μM) and Compound 2 (8 μM), 24 h
Procedure: Exponentially growing CHO cells were cultivated on round collagen-coated coverslips (22 mm, BD BioCoat) in a six-well plate (1.2×10^5 cells/well, 2 mL). After 24 h, the media was replaced with fresh media containing chloroquine (final concentration=5 μM) in DMSO (final [DMSO]=1%) and cells were incubated at 37° C. for 1 h. The media was replaced with fresh media containing Compound 3 (5 μM) and Compound 2 (concentration=8 μM) in DMSO (final [DMSO]=1%) with or without chloroquine […] (final concentration=5 μM) in DMSO (final [DMSO]=1%). The cells were incubated at 37° C. for 24 h. The cells were washed with PBS (2×2 mL) prior to analysis by confocal microscopy.

Jurkat lymphocytes [6] = assay: Release of fluorescent cargo from early/recycling endosomes, confocal microscopy, Jurkat lymphocytes; type: cell-based, human; conditions: for release of the fluorophore of the cargo compound when combined with Compound 1: Compound 3 or Compound 4 (2.5 μM), Compound 1 (2 μM), 12 h; for release of green fluorescence of Compound 3 from early/recycling endosomes by the endosome disruptor: Compound 3 (2.5 μM) and disruptor (2 μM) for 12 h
Procedure: (§1) FIG. 4A-4J show confocal fluorescence and DIC micrographs of living cells treated with fluorescent probes. FIGS. 4A-4F show CHO cells were treated with Compound 3 or Compound 4 (5 μM) and Compounds 1, 2, or 5 (8 μM) for 24 h. In FIG. 4F, [chloroquine]=5 μM. In FIGS. 4G-4J, Jurkat lymphocytes were treated with Compound 3 or Compound 4 (2.5 μM) and Compound 1 or Compound 5 (2 μM) for 12 h.
Jurkat cells were treated with green fluorescent Compound 3 (2.5 μM) and red fluorescent Compound 2 (2 μM) for 12 h at 37° C. In FIG. 9B, bafilomycin A1 (1 μM), a vacuolar H^+ ATPase inhibitor that blocks acidification of endosomes, was added. FIG. 9A is without bafilomyin. Cells were washed with media and imaged by DIC and confocal laser scanning microscopy.
(§2) A Zeiss LSM 5 Pascal confocal laser-scanning microscope fitted with a Plan Apochromat objective (63×) was employed. Fluorescein and Alexa Fluor-488 were excited with a 488 nm Argon ion laser (25 mW, 1% laser power) and emitted photons were collected through 505 nm LP filter. Excitation of 6-Hex, Texas Red, and DiI employed a 543 nm HeNe laser and emitted photons were collected through a 560 nm LP filter.

CHO cells [7] = assay: Release of fluorescent cargo from early/recycling endosomes, confocal microscopy, CHO cells; type: cell-based, Chinese hamster; conditions: for release of the fluorophore of the cargo compound when combined with Compound 1 or Compound 2: Compound 3 or Compound 4 (5 μM), disruptor 8 μM, 24 h; for release of green fluorescence of Compound 3 from early/recycling endosomes by the endosome disruptor: Compound 3 (5 μM) and Compounds 1, 2, or 5 (8 μM) for 24 h
Procedure: as §1, §2

CHO cells [8] = assay: Dose dependence of endosomal escape quantified by flow cytometry, CHO cells; type: cell-based, Chinese hamster; conditions: Compound 3 (5 μM) with increased amounts of Compound 1, or Compound 5 at 8 micromolar, 24 h, 37° C.
Procedure: (§3) Cellular fluorescence was analyzed by flow cytometry.
(§4) Analyses were performed with a Beckman-Coulter XL-MCL bench-top flow cytometer. Forward-scatter (FS) and side-scatter (SSC) dot plots afforded cellular physical properties of size and granularity that allowed gating of live cells. After gating, 10,000 cells were counted. In studies of endosomal release of fluorescein derivative Compound 6 mediated by Compound 1, the fluorophore was excited at 488 nm with a 15 mW air-cooled argon-ion laser, the emission was split with a 550 nm dichroic and filtered through a 510 nm long pass filter and 530/30-nm band pass filter using the XL-MCL cytometer. The PMT voltage for this instrument was set to 501 for Jurkat cells and 524 for CHO cells.

Jurkat lymphocytes [9] = assay: Dose dependence of endosomal escape quantified by flow cytometry, Jurkat lymphocytes; type: cell-based, human; conditions: Compound 3 (2.5 μM) with increased amounts of Compound 1, or Compound 5 at 8 micromolar, 12 h, 37° C.
Procedure: as §3, §4

Compound: CC(C)CCC[C@@H](C)[C@H]1CC[C@H]2[C@@H]3CC=C4C[C@@H](NCCCCC(=O)N[C@@H](CCC(=O)O)C(=O)N[C@@H](CCC(=O)O)C(=O)NCCCCCC(=O)NCCCCCC(=O)N[C@@H](CO)C(=O)N[C@@H](CO)C(=O)N[C@@H](C)C(=O)N[C@@H](Cc5c[nH]c6ccccc56)C(=O)N[C@@H](Cc5c[nH]c6ccccc56)C(=O)N[C@@H](CO)C(=O)N[C@@H](Cc5ccc(O)cc5)C(=O)N[C@@H](Cc5c[nH]c6ccccc56)C(=O)N5CCC[C@H]5C(=O)N5CCC[C@H]5C(=O)N[C@H](C(=O)N[C@@H](C)C(N)=O)C(C)C)CC[C@]4(C)[C@H]3CC[C@]12C [Compound 1, N-[6-({6-[(N-{5-(3β-Cholest-5-en-3-ylammonio)pentanoyl}-5-oxidanidyl-5-oxidanylidene-L-norvalyl-5-oxidanidyl-5-oxidanylidene-L-norvalyl)amino]hexanoyl}amino)hexanoyl]-L-seryl-L-seryl-L-alanyl-L-tryptophyl-L-tryptophyl-L-seryl-L-tyrosyl-L-tryptophyl-L-prolyl-L-prolyl-L-valyl-L-alaninamide] ({Pentanoyl(5-NH-cholesteryl)}-EE[Ahx][Ahx]SSAWWSYWPPVA-NH2)
- toxicity to Jurkat lymphocytes (Jurkat lymphocytes [1]): non-toxic
- toxicity (cellular viability) (CHO cells [2]): non-toxic
- toxicity (cellular viability) (Jurkat lymphocytes [3]): non-toxic

Compound: CO/C1=C\C(C)=C\[C@@H](C)[C@@H](O)[C@@H](C)C/C(C)=C/C=C/[C@H](OC)[C@@H]([C@@H](C)[C@@H](O)[C@H](C)[C@@]2(O)C[C@@H](O)[C@H](C)[C@@H](C(C)C)O2)OC1=O [bafilomycin A1]
- effect of raising endosomal pH on release of the fluorophore (endosomal escape) (Jurkat lymphocytes [4]): blocked release of the fluorophore; also recorded: retention in endosomes

Compound: CCN(CC)CCCC(C)Nc1ccnc2cc(Cl)ccc12 (stereo not drawn) [chloroquine]
- effect of raising endosomal pH on release of the fluorophore (CHO cells [5]): blocked release of the fluorophore

Compound: CC(C)CCC[C@@H](C)[C@H]1CC[C@H]2[C@@H]3CC=C4C[C@@H](NCCCNC(=O)[C@H](CCC(=O)O)NC(=O)[C@H](CCC(=O)O)NC(=O)CCSSCCNC(=O)c5ccc(-c6c7ccc(=O)cc-7oc7cc(O)ccc67)c(C(=O)O)c5)CC[C@]4(C)[C@H]3CC[C@]12C [Compound 3, (11S,14S)-11-(2-Carboxylatoethyl)-1-[3-carboxylato-4-(6-oxido-3-oxo-3H-xanthen-9-yl)phenyl]-14-[({3-(3β-cholest-5-en-3-ylammonio)propyl}amino)carbonyl]-1,9,12-trioxo-5,6-dithia-2,10,13-triazaheptadecan-17-oate]
- release of the fluorophore of the cargo compound when combined with Compound 1 (Jurkat lymphocytes [6]): released from entrapment in early/recycling endosomes
- release of the fluorophore of the cargo compound when combined with Compound 1 or Compound 2 (CHO cells [7]): released from entrapment in early/recycling endosomes

Compound: Ac-SSAWWSYWPPVA-NH2 [Compound 5, N-Acetyl-L-seryl-L-seryl-L-alanyl-L-tryptophyl-L-tryptophyl-L-seryl-L-tyrosyl-L-tryptophyl-L-prolyl-L-prolyl-L-valyl-L-alaninamide, reference compound]
- release of green fluorescence of Compound 3 from early/recycling endosomes by the endosome disruptor (Jurkat lymphocytes [6]): little effect
- cellular fluorescence (endosomal escape) by flow cytometry (CHO cells [8]): did not increase fluorescence
- release of green fluorescence of Compound 3 from early/recycling endosomes by the endosome disruptor (CHO cells [7]): little effect
- cellular fluorescence (endosomal escape) by flow cytometry (Jurkat lymphocytes [9]): did not increase fluorescence

Compound: CC(C)CCC[C@@H](C)[C@H]1CC[C@H]2[C@@H]3CC=C4C[C@@H](NCCCNC(=O)[C@H](CCC(=O)O)NC(=O)[C@H](CCC(=O)O)NC(=O)CCNC(=O)CCNC(=O)c5ccc(-c6c7ccc(=O)cc-7oc7cc(O)ccc67)c(C(=O)O)c5)CC[C@]4(C)[C@H]3CC[C@]12C [Compound 4, (11S,14S)-11-(2-Carboxylatoethyl)-1-[3-carboxylato-4-(6-oxido-3-oxo-3H-xanthen-9-yl)phenyl]-14-[({3-(3β-cholest-5-en-3-ylammonio)propyl}amino)carbonyl]-1,5,9,12-tetraoxo-2,6,10,13-tetraazaheptadecan-17-oate]
- release of the fluorophore of the cargo compound when combined with Compound 1 (Jurkat lymphocytes [6]): blocked release of the fluorophore
- release of the fluorophore of the cargo compound when combined with Compound 1 or Compound 2 (CHO cells [7]): blocked release of the fluorophore

Compound: CC(C)CCC[C@@H](C)[C@H]1CC[C@H]2[C@@H]3CC=C4C[C@@H](NCCCCC(=O)N[C@@H](CCC(=O)O)C(=O)N[C@@H](CCCCNC(=O)c5cc(Cl)c(C(=O)O)c(-c6c7cc(Cl)c(=O)c(Cl)c-7oc7c(Cl)c(O)c(Cl)cc67)c5Cl)C(=O)NCCCCCC(=O)NCCCCCC(=O)N[C@@H](CO)C(=O)N[C@@H](CO)C(=O)N[C@@H](C)C(=O)N[C@@H](Cc5c[nH]c6ccccc56)C(=O)N[C@@H](Cc5c[nH]c6ccccc56)C(=O)N[C@@H](CO)C(=O)N[C@@H](Cc5ccc(O)cc5)C(=O)N[C@@H](Cc5c[nH]c6ccccc56)C(=O)N5CCC[C@H]5C(=O)N5CCC[C@H]5C(=O)N[C@H](C(=O)N[C@@H](C)C(N)=O)C(C)C)CC[C@]4(C)[C@H]3CC[C@]12C [Compound 2, N-(6-{[6-({N-{5-(3β-Cholest-5-en-3-ylammonio)pentanoyl}-5-oxidanidyl-5-oxidanylidene-L-norvalyl-N^6-[4-carboxy-2,5-dichloro-3-(2,4,5,7-tetrachloro-6-hydroxy-3-oxo-3H-xanthen-9-yl)benzoyl]-L-lysyl}amino)hexanoyl]amino}hexanoyl)-L-seryl-L-seryl-L-alanyl-L-tryptophyl-L-tryptophyl-L-seryl-L-tyrosyl-L-tryptophyl-L-prolyl-L-prolyl-L-valyl-L-alaninamide] ({Pentanoyl(5-NH-cholesteryl)}-EK(X1)[Ahx][Ahx]SSAWWSYWPPVA-NH2)
- release of green fluorescence of Compound 3 from early/recycling endosomes by the endosome disruptor (Jurkat lymphocytes [6]): endosomal escape
- release of green fluorescence of Compound 3 from early/recycling endosomes by the endosome disruptor (CHO cells [7]): fluorescence was observed in the cytosol and nucleus
